Laboratory results from patent US6203976A, “Methods of preparing compositions comprising chemicals capable of transcriptional modulation” (OSI Pharmaceuticals, Inc., priority 1994, dated 2001).
“And” between values parts separate entries of the source, which are not always exact repeats. Equal entries are not always repeated. Where two headings read alike, the source gives them in different places.

Assays:
[1] = tested on: human G-CSF (G21) promoter; assay: High-throughput luciferase reporter assay, G-CSF promoter (Screen III); conditions: G21 cells, 6 hours; for FOLD INDUCTION RELATIVE TO SOLVENT CONTROL, GCSF: Screen III activators; for FOLD INHIBITION RELATIVE TO SOLVENT CONTROL, GCSF: Screen III inhibitors
[2] = tested on: human growth hormone (532) promoter; assay: High-throughput luciferase reporter assay, human Growth Hormone promoter (Screen III); assay type: cell-based; conditions: for FOLD INDUCTION RELATIVE TO SOLVENT CONTROL, hGH: Screen III activators
MMTV (M10) promoter = assay: High-throughput luciferase reporter assay, MMTV promoter (Screen III); assay type: cell-based, mouse; conditions: for FOLD INDUCTION RELATIVE TO SOLVENT CONTROL, MMTV: Screen III activators
Description: pMluci and pSV2Neo, an antibiotic resistance plasmid (112), were co-transfected into NIH/3T3 mouse fibroblast cells using the calcium phosphate precipitation method (103) with a commercially available kit (Pharmacia, Piscataway N.J.). Two days later, cells were transferred to media containing 0.4 mg/ml G418 and were grown for an additional 10-14 days. G418-resistant clones were isolated by standard methods. Once sufficient cell numbers were obtained, clones were analyzed based on several criteria: constitutive luciferase production, induction of luciferase expression by dexamethasone (1 μm, Sigma, St. Louis, Mo.), satisfactory attachment to microtiter plates used in the high-throughput screen and acceptable standard deviation in multiple luciferase expression assays (see below for assay protocol). This analysis was carried out using the luciferase assay conditions described above. Of the clones which satisfied the above criteria for the high throuphput screen, one clone, M10, was selected for use.

[3] = Screen III inhibitors, 532 cells, 6 hours
[4] = Screen III inhibitors, M10 cells, 6 hours

SMILES | FOLD INDUCTION RELATIVE TO SOLVENT CONTROL, GCSF [1] | FOLD INDUCTION RELATIVE TO SOLVENT CONTROL, hGH ([2]; 532 cells, 6 hours) | FOLD INDUCTION RELATIVE TO SOLVENT CONTROL, MMTV (MMTV (M10) promoter; M10 cells, 6 hours) | FOLD INHIBITION RELATIVE TO SOLVENT CONTROL, hGH [2, 3] | FOLD INHIBITION RELATIVE TO SOLVENT CONTROL, MMTV (MMTV (M10) promoter; [4]) | other results
O=C(O)c1ccc2c3c(ncnc13)-c1ccccc1C2=O [compound 378] | 4.12 fold | 0.26 fold | 0.59 fold | – | – | –
CCN(CC)CCCC(C)Nc1c2ccc(Cl)cc2nc2ccc(OC)cc12 (centres unmarked) [compound 423] | 2.39 fold | 0.56 fold | 0.64 fold | – | – | –
O=c1ccc2[n+]([O-])c3ccc(O)cc3oc-2c1 [compound 427] | 3.14 fold | 0.43 fold | 0.71 fold | – | – | –
Cc1cc(C)nc(NS(=O)(=O)c2ccc(N)cc2)n1 [compound 443] | – | – | – | 4.76 fold | 0.79 fold | FOLD INHIBITION RELATIVE TO SOLVENT CONTROL, GCSF [1]: 0.60 fold
c1ccc(-c2cccc(-c3ccccn3)n2)nc1 [compound 453] | 0.79 fold | 0.58 fold | – | – | – | FOLD INDUCTION RELATIVE TO SOLVENT CONTROL, MMTV (MMTV (M10) promoter; M10 cells, 6 hours, 360 min): 13.3 fold and 13.30 fold; ability to activate the MMTV promoter with methanol replacing DMSO (MMTV (M10) promoter; chemical dissolved in methanol instead of DMSO): did not affect its ability to activate the MMTV promoter
c1ncncn1 [compound 473] | > 3 fold | 0.50 fold | 0.87 fold | – | – | –
CC(C=O)=CC=CC(C)=CC=CC=C(C)C=CC=C(C)C=CC1=C(C)CCCC1(C)C [compound 519] | 1.15 fold | 0.68 fold | 2.76 fold | – | – | –
O=P(O)(O)Oc1c[nH]c2ccc(Br)c(Cl)c12 [compound 541] | – | – | – | 6.25 fold | 0.86 fold | FOLD INHIBITION RELATIVE TO SOLVENT CONTROL, GCSF [1]: 0.90 fold
Nc1nc(=O)n([C@H]2C[C@H](O)[C@@H](CO)O2)cc1Br [compound 542] | 6.28 fold | 1.08 fold | 1.26 fold | – | – | –
O=c1[nH]c(=O)n([C@H]2C[C@H](O)[C@@H](CO)O2)cc1Br [compound 543] | 7.17 fold | 0.72 fold | 0.98 fold | – | – | –
CON(C)C(=O)Nc1ccc(Cl)cc1 [compound 552] | 0.81 fold | 5.31 fold | 0.86 fold | – | – | –
CC1=CC(=C(c2cc(C)c(O)c(C(=O)O)c2)c2c(Cl)ccc(S(=O)(=O)O)c2Cl)C=C(C(=O)O)C1=O [compound 556] | – | – | – | 33.33 fold | 0.87 fold | FOLD INHIBITION RELATIVE TO SOLVENT CONTROL, GCSF [1]: 0.73 fold
C[C@]12C=CC(=O)C=C1CC[C@@H]1[C@@H]2[C@@H](O)C[C@@]2(C)[C@H]1CC[C@]2(O)C(=O)CO [compound 764] | – | – | – | – | – | FOLD INHIBITION RELATIVE TO SOLVENT CONTROL, hGH [2]: 4.54; FOLD INHIBITION RELATIVE TO SOLVENT CONTROL, MMTV (MMTV (M10) promoter): 0.59
NC(=O)c1ccccc1O [compound 798] | – | – | – | 0.90 fold | 0.68 fold | –
Cc1n[nH]cc1Br [compound 2082] | – | – | – | 0.65 fold | 1.23 fold | –
ClCCCCCBr [compound 2097] | – | 0.88 fold | 1.22 fold | – | – | –
OCc1cccc(Cl)c1 [compound 2121] | – | – | – | 0.40 fold | 1.14 fold | –
